Read-outs that look alike come from different tables or passages of the source.
What was measured:
[1] = test system: DLD-1 colon cancer cells; test: MTT viability assay, DLD-1; format: cell-based; details: Homo sapiens
Text: Specific Examples of compounds of the present disclosure have EC50 values estimated using a cell-based assay for binding to the KLF5 promoter and, in many cases, a follow-up viability assay (MTT) using DLD-1 colon cancer cells, a cell line known to highly express KLF5 and whose growth is adversely affected by the reduction of KLF5 levels. Assay protocols follow those described in the literature.^22,23 Other assays that are not described here but that are standard in the field may also be useful in establishing mechanism of action of these compounds.

[2] = test system: Cyclin D1, E, A2, and B1; test: Western blot of cyclin levels; format: cell-based, human; details: DLD-1 and HCT116, 1 μM or 10 μM, 72 h
Text: Cyclins and their appropriate cyclin-dependent kinases form a regulatory network that allow cells to progress through the cell cycle (39, 40). […] SR15006, or SR18662, as compared to vehicle-treated cells. Thus, we investigated if these changes are accompanied by differences in the expression levels of cyclins. We focused our attention on Cyclin D1, E, A2, and B1, as we have previously shown that ML264 has inhibitory effect on their levels (24). […] Additionally, in contrast to ML264 or SR15006, SR18862 induced apoptosis and cell death.
(§1) Western blot analysis. Total protein was extracted from cells with Laemmli buffer and the analysis was performed as described previously (24).

[3] = test system: human KLF5 promoter; test: KLF5 promoter activity luciferase assay in DLD-1/pGL4.18hKLF5p cells; format: cell-based; details: for EC50: read-out: Approximate potency (EC50 · mol/L) (luciferase)
Protocol: To examine the impact of these compounds on viability of CRC cell lines, we performed cell proliferation and cell growth assays using DLD-1 and HCT116 CRC cells. […] KLF5 promoter activity assay. DLD-1/pGL4.18hKLF5p cells were seeded in 96 well plate format and treated with DMSO or with test compounds dissolved in DMSO in the range of 0.001 to 20 μM final concentration for 24 h and the human KLF5 promoter activity was determined with the ONE-Glo luciferase assay system (Promega) using a SpectramMax M3 (Molecular Devices) plate reader. The IC50 values were calculated using GraphPad Prism version 5.00 for Windows (GraphPad Software) (22).

[4] = test system: KLF5; test: Western blot of KLF5 protein levels in DLD-1 cells; format: cell-based, human; details: 1 μM and 10 μM, 24 h
Protocol: In this experiment the test compounds were at 1 μM and 10 μM, and protein levels were measured after 24 h.
as §1

[5] = test system: MAPK pathway; test: Western blot of MAPK signaling pathway components; format: cell-based, human; details: DLD-1 and HCT116, 10 μM, 72 h
Text: SR18662 negatively regulates MAPK and WNT signaling pathway and cyclin levels. Myriad publications have shown that in both in vitro and in vivo contexts KLF5 is regulated by MAPK and WNT signaling pathways and that KLF5, in turn, has the ability to modulate the activity of these pathways (14, 18, 26-32). We have previously shown that treatment of CRCs with ML264 results in decreased activity of both the MAPK and WNT signaling pathways (24). Because SR15006 and SRI8662 are structurally related to ML264, we decided to investigate their ability to alter the expression levels of the components of these pathways. Thus, we treated DLD-1 and HCT116 CRCs with DMSO (vehicle) and tested compounds at 1 μM or 10 μM, collecting the cells for western blot analysis at 24, 48, and 72 h. […] Similar effects were seen when both cell lines were treated these compounds at 1 μM. Furthermore, the inhibitory effects of SR18662 on the components of the MAPK signaling pathway we observed at earlier time points than were apparent following treatment with ML264 or SR15006.
as §1

[6] = test system: DLD-1 and HCT116 CRC cells; test: Cell cycle analysis by flow cytometry (propidium iodide); format: cell-based, human; details: 10 μM, over three days
Protocol: SR18662 alters the cell cycle pattern of CRCs. […] We have also evaluated the impact of SR15006 and SR18662 on cell cycle progression. We treated DLD-1 and HCT116 CRC cells over the course of three days with vehicle or 1 μM or 10 μM of test compound and then analyzed cell cycle using flow cytometry.
Cell proliferation, cell cycle and apoptosis assays. For cell proliferation experiments, cell cycle, and apoptosis determination, DLD-1 and HCT116 cells were treated with 1 or 10 μM of each compound or with vehicle (DMSO). The cells were collected at 24, 48, and 72 h post-treatment and analyzed as previously described (24). Each experiment was performed in triplicate.

[7] = test system: SW-620 colorectal cancer cell line; test: MTT growth assay, SW-620; format: cell-based; details: Homo sapiens, Table 1
Text: (§2) The observed activity is greater than that previously seen for ML264.

[8] = test system: HT-29 colorectal cancer cell line; test: MTT growth assay, HT-29; format: cell-based; details: Homo sapiens, Table 1
Text: as §2

[9] = test system: HCT-116 colorectal cancer cell line; test: MTT growth assay, HCT-116; format: cell-based; details: Homo sapiens, Table 1
Text: as §2

[10] = test system: DLD-1-derived tumor xenografts; details: once a day 25 mg/kg; cited from earlier work
[11] = Table 2, read-out: Approximate potency (EC50 · mol/L) (DLD1, MTT assay)

EC50 [1, 11] [nM] | EC50 ([3]; Homo sapiens, DLD-1, Table 2) [nM] | SMILES | other results
78.1 | 108 | CS(=O)(=O)N1CCN(C(=O)CNC(=O)/C=C/c2cc(Cl)cc(Cl)c2)CC1 [Example 13, (E)-3-(3,5-dichlorophenyl)-N-(2-(4-(methylsulfonyl)piperazin-1-yl)-2-oxoethyl)acrylamide] | –
41 | 46.1 | CS(=O)(=O)N1CCN(C(=O)CNC(=O)/C=C/c2ccc(F)c(F)c2)CC1 [Example 14, (E)-3-(3,4-difluorophenyl)-N-(2-(4-(methylsulfonyl)piperazin-1-yl)-2-oxoethyl)acrylamide] | –
3.63 | 6.28 | Cc1ccc(/C=C/C(=O)NCC(=O)N2CCN(S(C)(=O)=O)CC2)cc1Cl [Example 15, (E)-3-(3-chloro-4-methylphenyl)-N-(2-(4-(methylsulfonyl)piperazin-1-yl)-2-oxoethyl)acrylamide] | –
315 | – | CS(=O)(=O)N1CCN(C(=O)CNC(=O)/C=C/c2ccc(C(F)(F)F)c(Cl)c2)CC1 [Example 16, (E)-3-(3-chloro-4-(trifluoromethyl)phenyl)-N-(2-(4-(methylsulfonyl)piperazin-1-yl)-2-oxoethyl)acrylamide] | Approximate potency (EC50 · mol/L) (luciferase) ([3]; Table 2): Not converged
1610 | 7910 | CS(=O)(=O)N1CCN(C(=O)CNC(=O)/C=C/c2ccc(OC(F)(F)F)c(Cl)c2)CC1 [Example 17, (E)-3-(3-chloro-4-(trifluoromethoxy)phenyl)-N-(2-(4-(methylsulfonyl)piperazin-1-yl)-2-oxoethyl)acrylamide] | –
15.3 | 20.1 | CS(=O)(=O)N1CCN(C(=O)CNC(=O)/C=C/c2ccc3c(c2)OCO3)CC1 [Example 18, (E)-3-(benzo[d][1,3]dioxol-5-yl)-N-(2-(4-(methylsulfonyl)piperazin-1-yl)-2-oxoethyl)acrylamide] | –

Continued, compound first:

SMILES | EC50 [1, 11] [nM] | EC50 ([3]; Homo sapiens, DLD-1, Table 2) [nM] | other results
CS(=O)(=O)N1CCN(C(=O)CNC(=O)/C=C/c2cccc(Cl)c2)CC1 [Example 1, (E)-3-(3-chlorophenyl)-N-(2-(4-(methylsulfonyl)piperazin-1-yl)-2-oxoethyl)acrylamide] | 16.3 | 41.6 | levels of cyclins [2]: significant reduction in the levels of tested cyclins; IC50 ([3]; Homo sapiens, DLD-1, 24 h treatment, FIG. 1B, read-out: IC50, human KLF5 promoter activity): 41.6 nM; KLF5 protein levels by Western blot [4]: significantly reduced; expression levels of MAPK pathway components [5]: negatively regulated the expression levels of the components of the MAPK pathway; cell cycle distribution [6]: affected the cell cycle in the similar way as did ML264
CS(=O)(=O)NCC1CCN(C(=O)CNC(=O)/C=C/c2cccc(Cl)c2)CC1 [Example 2, (E)-3-(3-chlorophenyl)-N-(2-(4-(methylsulfonamidomethyl)piperidin-1-yl)-2-oxoethyl)acrylamide] | 140 | 1410 | –
CS(=O)(=O)NCC1CCN(C(=O)CNC(=O)/C=C/c2cccc(Cl)c2)C1 (centres unmarked) [Example 3, (E)-3-(3-chlorophenyl)-N-(2-(3-(methylsulfonamidomethyl)pyrrolidin-1-yl)-2-oxoethyl)acrylamide] | – | 846 | –
CS(=O)(=O)N1CCC(CNC(=O)CNC(=O)/C=C/c2cccc(Cl)c2)CC1 [Example 4, (E)-3-(3-chlorophenyl)-N-(2-(((1-(methylsulfonyl)piperidin-4-yl)methyl)amino)-2-oxoethyl)acrylamide] | 2730 | – | –
CS(=O)(=O)N1CCC(CNC(=O)CNC(=O)/C=C/c2cccc(Cl)c2)C1 (centres unmarked) [Example 5, (E)-3-(3-chlorophenyl)-N-(2-(((1-(methylsulfonyl)pyrrolidin-3-yl)methyl)amino)-2-oxoethyl)acrylamide] | 3.26 | – | –
CS(=O)(=O)N1CCCN(C(=O)CNC(=O)/C=C/c2cccc(Cl)c2)CC1 [Example 6, (E)-3-(3-chlorophenyl)-N-(2-(4-(methylsulfonyl)-1,4-diazepan-1-yl)-2-oxoethyl)acrylamide] | – | 1080 | –
O=C(/C=C/c1cccc(Cl)c1)NCC(=O)N1CCN(S(=O)(=O)C2CCCCC2)CC1 [Example 7, (E)-3-(3-chlorophenyl)-N-(2-(4-(cyclohexylsulfonyl)piperazin-1-yl)-2-oxoethyl)acrylamide] | 347 | 1280 | –
CC(C)CS(=O)(=O)N1CCN(C(=O)CNC(=O)/C=C/c2cccc(Cl)c2)CC1 [Example 8, (E)-3-(3-chlorophenyl)-N-(2-(4-(isobutylsulfonyl)piperazin-1-yl)-2-oxoethyl)acrylamide] | 322 | 7050 | –
COc1ccc(/C=C/C(=O)NCC(=O)N2CCN(S(C)(=O)=O)CC2)cc1Cl [Example 10, (E)-3-(3-chloro-4-methoxyphenyl)-N-(2-(4-(methylsulfonyl)piperazin-1-yl)-2-oxoethyl)acrylamide] | 63.8 | 170 | –
CS(=O)(=O)N1CCN(C(=O)CNC(=O)/C=C/c2ccc(F)c(Cl)c2)CC1 [Example 11, (E)-3-(3-chloro-4-fluorophenyl)-N-(2-(4-(methylsulfonyl)piperazin-1-yl)-2-oxoethyl)acrylamide] | 25.3 | 26.1 | –
CS(=O)(=O)N1CCN(C(=O)CNC(=O)/C=C/c2cccc(Br)c2)CC1 [Example 12, (E)-3-(3-bromophenyl)-N-(2-(4-(methylsulfonyl)piperazin-1-yl)-2-oxoethyl)acrylamide] | 73.5 | 87.8 | –
CN(C(=O)CNC(=O)/C=C/c1cccc(Cl)c1)C1CCS(=O)(=O)CC1 [ML264, reference compound] | – | – | EC50 ([1]; MTT, Table 1, read-out: EC50 (nM) DLD-1): 13 nM; levels of cyclins [2]: significant reduction in the levels of tested cyclins; EC50 [7]: 412 nM; EC50 [8]: 295 nM; KLF5 protein levels by Western blot [4]: significantly reduced; EC50 [9]: 34 nM; expression levels of MAPK pathway components [5]: negatively regulated the expression levels of the components of the MAPK pathway; cell cycle distribution [6]: significant decrease in the number of cells in G0/G1 and an increase in cells in S- and G2/M phases; growth of CRC xenografts [10]: significantly reduced the growth

Reference: patent US12486227B2, “Small molecules for cancer therapy that reduce the expression of transcription factors KLF5 and EGR-1” (University of Florida Research Foundation, Incorporated, priority 2019, dated 2025)
